This note sets out measurements from patent publication US11013698B2, “Combinations of LSD1 inhibitors for the treatment of hematological malignancies” (Oryzon Genomics S.A., priority 2016, dated 2021).

Holding throughout (type): cell-based
For series [1], the system named is MOLT-4 cells. The experiment in a line: Viability assay (10 days), Alamar Blue. To be noted: MOLT4, 10 days. How it is done: MOLT4 cells were maintained in RPMI 10% FBS medium at 37° C. in a humidified incubator with controlled 5% CO2 atmosphere. Cell freezing and thawing was performed following recommendation from ATCC. Genetic profiling of the cell lines used is available in table 4.
Three wells were reserved for each experimental condition; medium-only and vehicle-treated controls were also added for background correction and normalization respectively. After seeding, 50 μL of medium containing 8 1:3 serial dilution of ORY-1001 were added to the cells (range 0.015-100 nM). Cells were then incubated for 6 days at 37° C. in a controlled 5% CO2 atmosphere. On the sixth day, 100 μL of medium with serial dilutions of ORY-1001 (as described previously) or vehicle were added to the cells. Medium without compound (100μ) was added to background control.
After 4 additional days of incubation, cell viability was evaluated using the Alamar Blue® staining as detailed in the section 1.1.2.
In general terms: Resazurin is reduced to fluorescent resorufin, in cell work by metabolically active cells.

In a further series the test system is THP-1. As to the kind of experiment: Viability assay (96 hours), Alamar Blue. The following applies: THP-1, 96 hours; for Reduction of viability (compared to vehicle controls): serial 1:3 dilution. How it is done: (§1) AML cell lines were maintained in RPMI 10% FBS medium at 37° C. in a humidified incubator with controlled 5% CO2 atmosphere. Cell freezing and thawing was performed following recommendation from ATCC. Genetic profiling of the cell lines used is available in table 2. Cells were seeded at the optimal density (to guarantee linear growth during the treatment), as previously determined (4000 cells/well, except 16000 cells/well in the case of KASUMI-1 cells), in 96-well plates with 50 μL of medium. Three wells were reserved for each experimental condition; medium-only and vehicle-treated controls were also added for background correction and normalization respectively. […] Alamar Blue® is a cell viability indicator that uses the natural reducing power of living cells to convert resazurin to the fluorescent molecule, resorufin^43.

A further series relates to OCI-AML3. The experiment in a line: Viability assay (96 hours), Alamar Blue. To be noted: OCI-AML3, 96 hours; for Reduction of viability (compared to vehicle controls): serial 1:3 dilution. How it is done: as §1
For a further series, the system named is MV(4;11). The experiment in a line: Viability assay (96 hours), Alamar Blue. The following applies: MV(4;11), 96 hours; for Reduction of viability (compared to vehicle controls): serial 1:3 dilution. How it is done:
as §1

Another series deals with KASUMI-1. The experiment in a line: Viability assay (96 hours), Alamar Blue. To be noted: KASUMI-1, 96 hours; for Reduction of viability (compared to vehicle controls): serial 1:3 dilution. How it is done:
as §1

In a further series the test system is MOLM-13. As to the kind of experiment: Viability assay (96 hours), Alamar Blue. To be noted: MOLM-13, 96 hours; for Reduction of viability (compared to vehicle controls): serial 1:3 dilution. How it is done: as §1
The subject of another series is HL-60. As to the kind of experiment: Viability assay (96 hours), Alamar Blue. The following applies: HL-60, 96 hours; for Reduction of viability (compared to vehicle controls): serial 1:3 dilution. How it is done:
as §1

Series [2] relates to MOLT-4 cells. The experiment in a line: Viability after shorter treatment (96 hours). The following applies: MOLT-4, 96 hours treatment (data not shown).
For another series, the system named is OCI-AML2. As to the kind of experiment: Viability assay (96 hours), Alamar Blue. The following applies: OCI-AML2, 96 hours, serial 1:3 dilution. How it is done: as §1

`N[C@H]1CC[C@H](N[C@@H]2C[C@H]2c2ccccc2)CC1` [ORY-1001, (trans)-N1-((1R,2S)-2-phenylcyclopropyl)cyclohexane-1,4-diamine]: the cytotoxicity at 0.1 µM in the series with MOLT-4 cells [1] (Homo sapiens, MOLT-4, 240 h, highest ORY-1001 concentration 100 nM, read-out: Viability reduction (compared to vehicles)) was greater than 20%. Moreover, the “EC50 (viability)” value in the series with MOLT-4 cells [1], in the series on THP-1 (single agent), in the series on OCI-AML3 (single agent), with MV(4;11) (single agent), in the series with KASUMI-1 (single agent) and in the series on MOLM-13 (single agent) was “sub-nanomolar range” in each case. Also, in the series on HL-60 (single agent), the “EC50 (viability)” value is on record as “sub-nanomolar range”. Besides, the “Reduction of viability (compared to vehicle controls)” value (“Reduction of viability” for short) in the series with THP-1, in the series on OCI-AML3, in the series with MV(4;11), in the series with KASUMI-1, with MOLM-13 and with HL-60 was “greater than 20%” throughout. Further, the Effect on viability entry in the series on MOLT-4 cells [2] is reported as “not affecting the viability”.
On to `O=C(CCCCCCNC(=O)c1cnc(N(c2ccccc2)c2ccccc2)nc1)NO` [Rocilinostat, Ricolinostat], for which the “Reduction of viability” value with THP-1, in the series on OCI-AML3, in the series with MV(4;11), in the series with OCI-AML2, in the series on KASUMI-1 and with MOLM-13 was “greater than 20%” throughout. The “Reduction of viability” value in the series on HL-60 is “greater than 20%”.
